Patent US10307466B2, “Composition comprising sophorolipid, physiologically active substance and oil or fat, and method for producing the same” (SARAYA CO., LTD., priority 2014, dated 2019)

Assay: Binding to phosphatidylcholine-coated silica beads (TRANSIL Intestinal Absorption Kit)
Conditions: compared with the physiologically active substance alone taken as 1; for Relative amount of physiologically active substance bound to the beads, Example (sophorolipid): substance emulsified with sophorolipid; for Relative amount of physiologically active substance bound to the beads, Comparative Example (sucrose fatty acid ester): substance emulsified with sucrose fatty acid ester
Procedure: In the evaluation herein, the binding of substances to silica beads coated with a phospholipid (phosphatidylcholine) was compared. A higher binding indicates a higher cell membrane transport and a higher intestinal absorption.
An aqueous phase was prepared and the pH was adjusted with a pH adjuster to a pH value of 6. The aqueous phase and an oil phase were heated to 50 to 60° C. The aqueous phase was added to the oil phase. The mixture was stirred with a homogenizer (HG-200, As One Corporation) at a high speed of 10,000 rpm for 10 minutes to give an emulsion.
The affinity with phosphatidylcholine-coated silica beads (TRANSIL Intestinal Absorption Kit, SOVICELL GMBH) was assessed. A volume of 200 μl of PBS (phosphate buffered saline) containing the beads was added to each tube, and 20 μl of each of the compositions was added. The mixture was agitated with a test tube mixer for 12 minutes. The beads were allowed to settle, and the supernatant was collected and diluted to 10-fold. The fluorescence intensity of the supernatant was measured with a spectrophotometer (Hitachi F-2700, excitation wavelength: 494 nm, fluorescence wavelength: 521 nm).
A volume of 200 μl of PBS containing the beads was added to each tube, and 20 μl of each of the compositions was added. The mixture was agitated with a test tube mixer for 12 minutes. The beads were allowed to settle, and the supernatant was removed. The beads were washed with PBS, and 200 μl of methanol was added to elute oil red from the beads. The absorbance of the oil red solution in methanol was measured at 510 nm with an ultraviolet spectrophotometer (Shimadzu UV-1200). The relative amount of the pigment of Example 14 or Comparative Example 4 bound to the beads was calculated, with the obtained value of an oil red solution (Comparative Example 5) taken as 1.
A volume of 200 μl of PBS containing the beads was added to each tube, and 20 μl of each of the compositions was added. The mixture was agitated with a test tube mixer for 12 minutes. The beads were allowed to settle, and the supernatant was removed. The beads were washed with PBS, and 200 μl of methanol was added to elute tocopherol from the beads. The amount of tocopherol was measured by HPLC (Shimadzu LC-10A series). The relative amount of tocopherol of Example 15 or Comparative Example 6 bound to the beads was calculated, with the obtained value of a tocopherol solution (Comparative Example 7) taken as 1.
A volume of 200 μl of PBS containing the beads was added to each tube, and 20 μl of each of the compositions was added. The mixture was agitated with a test tube mixer for 12 minutes. The beads were allowed to settle, and the supernatant was removed. The beads were washed with PBS, and 200 μl of hexane was added to elute DHA from the beads. The amount of DHA was measured by gas chromatography (Shimadzu GC-2014 series).
The relative amount of DHA of Example 16 or Comparative Example 8 bound to the beads was calculated, with the obtained value of a DHA solution (Comparative Example 9) taken as 1.
GC was used for the analysis of eicosapentaenoic acid and linoleic acid. […] An atomic absorption spectrophotometer was used for the analysis of zinc gluconate, copper gluconate, and iron citrate.
The calculated value was expressed by the symbols A, B and C. The affinities of the physiologically active substances were assessed by comparing the cases where each physiologically active substance was emulsified with a sucrose fatty acid ester or the sophorolipid and where each of the physiologically active substances was used alone.

Substance | Relative amount of physiologically active substance bound to the beads, Example (sophorolipid) | Relative amount of physiologically active substance bound to the beads, Comparative Example (sucrose fatty acid ester)
Copper gluconate | B (affinity of not less than 2.0-fold and less than 5.0-fold) | C (affinity of less than 2.0-fold)
Iron citrate | B (affinity of not less than 2.0-fold and less than 5.0-fold) | C (affinity of less than 2.0-fold)
Zinc gluconate | B (affinity of not less than 2.0-fold and less than 5.0-fold) | C (affinity of less than 2.0-fold)
